Like-named read-outs stand apart in the source and are kept apart here. Numbered stars: 1 amine (or outer) side, 2 acyl side, 3 side chain; on linkers, the order of the positions; unused ones are H or OH. Bridge positions count the residues as written; N and C are the ends. Side chains are listed from the residue outwards. Peptide text beside a SMILES is read from it. * marks the point of attachment. C20 diacid = O=C(O)CCCCCCCCCCCCCCCCCCC(=O)*; γGlu = O=C(O)[C@H](CCC(=O)[*:2])N[*:1]
Experiments:
[1] = molecular target: T1, human calcitonin receptor (Homo sapiens, UniProt P30988); assay: Assay (VII) binding to the human calcitonin receptor (SPA, 125I-Calcitonin); conditions: read-out: hCTR bind IC50;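 note: cell membranes coupled to SPA beads, competitive displacement read by scintillation counting, IC50 derived from a one-site competition fit as a measure of receptor affinity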
T1 construct: expressed in transfected cells
T1 sequence (P30988 25-474): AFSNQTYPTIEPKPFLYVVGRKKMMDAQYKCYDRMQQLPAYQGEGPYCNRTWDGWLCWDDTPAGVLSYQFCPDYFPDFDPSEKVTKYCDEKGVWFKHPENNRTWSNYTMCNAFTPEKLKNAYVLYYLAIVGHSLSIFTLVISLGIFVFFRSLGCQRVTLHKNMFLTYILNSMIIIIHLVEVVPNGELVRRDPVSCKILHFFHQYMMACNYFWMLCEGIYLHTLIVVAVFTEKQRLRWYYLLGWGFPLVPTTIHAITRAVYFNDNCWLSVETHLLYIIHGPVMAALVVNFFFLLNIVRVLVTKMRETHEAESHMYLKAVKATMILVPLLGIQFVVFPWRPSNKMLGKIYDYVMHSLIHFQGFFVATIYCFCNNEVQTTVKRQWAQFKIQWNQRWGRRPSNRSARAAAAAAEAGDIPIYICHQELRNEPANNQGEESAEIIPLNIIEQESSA

[2] = molecular target: T2, human amylin receptor (Homo sapiens, UniProt O60896+P30988); assay: Assay (V) binding to the human amylin receptor (SPA, 125I-rat amylin); conditions: for IC50: human amylin receptor membranes, SPA, read-out: hAmylin-R bind IC50; for Ratio hCT/hAmylin binding: human binding ratio, included for comparison
T2 construct: expressed in transfected cells
T2 sequence (P30988 25-474): T1 sequence (P30988 25-474)
T2 sequence (O60896 24-148 partner): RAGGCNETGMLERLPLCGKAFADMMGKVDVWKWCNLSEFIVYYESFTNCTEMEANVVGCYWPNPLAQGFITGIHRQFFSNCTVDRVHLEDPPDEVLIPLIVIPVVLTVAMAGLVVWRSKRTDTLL
Method in brief: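 SPA competition binding on membranes from Amylin 3(a)/CRE-luc cells, 35 ng/μL membranes with 0.05 mg/well beads. Buffer 50 mM Hepes pH 7.4, 1 mM CaCl2, 5 mM MgCl2, 0.1% OA, 0.02% Tween20. IC50 from one-site competition fit as affinity measure.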

[3] = molecular target: T3, human amylin receptor (amylin 3(a) receptor: human calcitonin receptor + RAMP-3) (Homo sapiens, UniProt O60896+P30988); assay: Assay (II)a functional assay, human amylin receptor (CRE luciferase, BHK cells); format: cell-based; conditions: for EC50: read-out: hAmylin-R funct. EC50
T3 construct: expressed in transfected cells
T3 sequence (P30988 25-474): T1 sequence (P30988 25-474)
T3 sequence (O60896 24-148 partner): T2 sequence (O60896 24-148 partner)

[4] = molecular target: T1, human calcitonin receptor; assay: Assay (II)a functional assay, human calcitonin receptor (CRE luciferase, BHK cells);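 note: luminescence from a CRE-driven luciferase reporter, read by single photon counting after cells were exposed to test samples for 3 h at 37 °C under 5% CO2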; format: cell-based; conditions: read-out: hCTR funct. EC50
[5] = Table 6, human functional selectivity (hCTR EC50 / hAmylin-R EC50)
[6] = Table 6a, human functional selectivity (hCTR EC50 / hAmylin-R EC50), at least 5

| IC50 [1] | IC50 [2] | Ratio hCT/hAmylin funct. [3, 5] | Ratio hCT/hAmylin funct. [3, 6] | EC50 [4] | Ratio hCT/hAmylin binding [2] | Ratio hCT/hAmylin funct. ([3]; Table 6i, hCTR funct. EC50 / hAmylin-R funct. EC50) | EC50 ([3]; Table 6i, human amylin receptor functional) | Ratio hCT/hAmylin funct. ([3]; Table 6j, hCTR funct. EC50 / hAmylin-R funct. EC50) | EC50 ([3]; functional assay, human amylin receptor) | Structure (SMILES) |
| --- | --- | --- | --- | --- | --- | --- | --- | --- | --- | --- |
| 19.5 nM | 1.13 nM | 6.7 | 6.7 | – | – | – | – | – | – | CC(C)C[C@H](NC(=O)[C@H](CCCNC(=N)N)NC(=O)[C@H](CCC(N)=O)NC(=O)[C@@H](NC(=O)[C@H](C)NC(=O)[C@@H]1CSSC[C@H](NC(=O)[C@@H](N)CCCCNC(=O)CC[C@H](NC(=O)CC[C@H](NC(=O)CCCCCCCCCCCCCCCCCCC(=O)O)C(=O)O)C(=O)O)C(=O)N[C@@H](CC(N)=O)C(=O)N[C@@H]([C@@H](C)O)C(=O)N[C@@H](C)C(=O)N[C@@H]([C@@H](C)O)C(=O)N1)[C@@H](C)O)C(=O)N[C@@H](C)C(=O)N[C@@H](CC(=O)O)C(=O)N[C@@H](Cc1ccccc1)C(=O)N[C@@H](CC(C)C)C(=O)N[C@@H](CCCNC(=N)N)C(=O)N[C@@H](Cc1c[nH]cn1)C(=O)N[C@@H](CO)C(=O)N[C@@H](CO)C(=O)N[C@@H](CC(N)=O)C(=O)N1CCC[C@H]1C(=O)N[C@@H](Cc1ccccc1)C(=O)NCC(=O)N[C@@H](C)C(=O)N1CCC[C@H]1C(=O)N[C@@H](CC(C)C)C(=O)N[C@@H](CO)C(=O)N[C@@H](CO)C(=O)N[C@H](C(=O)N[C@@H](CC(N)=O)C(=O)N[C@H](C(=O)NCC(=O)N[C@@H](CO)C(=O)N[C@@H](CC(=O)O)C(=O)N[C@H](C(=O)N[C@@H](Cc1ccc(O)cc1)C(N)=O)[C@@H](C)O)C(C)C)[C@@H](C)O [Example 3] (H-K([γGlu-γGlu-C20 diacid])CNTATCATQRLADFLRHSSNPFGAPLSSTNVGSDTY-NH2; disulfide 2-7) |
| 1.14 nM | 0.143 nM | 7.4 | 7.4 | 1.29 nM | 8.0 | 7.4 | 0.175 nM | 7.4 | – | CC[C@H](C)[C@H](NC(=O)[C@H](C)NC(=O)CNC(=O)[C@H](Cc1ccccc1)NC(=O)[C@H](CC(N)=O)NC(=O)[C@@H]1CCCN1C(=O)[C@H](CO)NC(=O)[C@H](CO)NC(=O)[C@H](Cc1c[nH]cn1)NC(=O)[C@H](CCCNC(=N)N)NC(=O)[C@H](CC(C)C)NC(=O)[C@H](Cc1ccccc1)NC(=O)[C@H](CCC(=O)O)NC(=O)[C@H](C)NC(=O)[C@H](CC(C)C)NC(=O)[C@H](CCCNC(=N)N)NC(=O)[C@H](CCC(N)=O)NC(=O)[C@@H](NC(=O)[C@H](C)NC(=O)[C@@H]1CSSC[C@H](NC(=O)[C@H](CCCCN)NC(=O)CC[C@H](NC(=O)CCCCCCCCCCCCCCCCCCC(=O)O)C(=O)O)C(=O)N[C@@H](CC(N)=O)C(=O)N[C@@H]([C@@H](C)O)C(=O)N[C@@H](C)C(=O)N[C@@H]([C@@H](C)O)C(=O)N1)[C@@H](C)O)C(=O)N1CCC[C@H]1C(=O)N[C@@H](CO)C(=O)N[C@@H](CO)C(=O)N[C@H](C(=O)N[C@@H](CC(N)=O)C(=O)N[C@H](C(=O)NCC(=O)N[C@@H](CO)C(=O)N[C@@H](CC(N)=O)C(=O)N[C@H](C(=O)N[C@@H](Cc1ccc(O)cc1)C(N)=O)[C@@H](C)O)C(C)C)[C@@H](C)O [Example 9] |
| 0.432 nM | 0.196 nM | 1.6 | – | 0.238 nM | 2.2 | – | – | – | 0.146 nM | CC[C@H](C)[C@H](NC(=O)[C@H](C)NC(=O)CNC(=O)[C@H](Cc1ccccc1)NC(=O)[C@H](CC(N)=O)NC(=O)[C@@H]1CCCN1C(=O)[C@H](CO)NC(=O)[C@H](CO)NC(=O)[C@H](Cc1c[nH]cn1)NC(=O)[C@H](CCCNC(=N)N)NC(=O)[C@H](CC(C)C)NC(=O)[C@H](Cc1ccccc1)NC(=O)[C@H](CCC(=O)O)NC(=O)[C@H](C)NC(=O)[C@H](CC(C)C)NC(=O)[C@H](CCCNC(=N)N)NC(=O)[C@H](CCC(N)=O)NC(=O)[C@@H](NC(=O)[C@H](C)NC(=O)[C@@H]1CSSC[C@H](NC(=O)[C@H](CCCCN)NC(=O)CC[C@H](NC(=O)CC[C@H](NC(=O)CCCCCCCCCCCCCCCCCCC(=O)O)C(=O)O)C(=O)O)C(=O)N[C@@H](CC(N)=O)C(=O)N[C@@H]([C@@H](C)O)C(=O)N[C@@H](C)C(=O)N[C@@H]([C@@H](C)O)C(=O)N1)[C@@H](C)O)C(=O)N1CCC[C@H]1C(=O)N[C@@H](CO)C(=O)N[C@@H](CO)C(=O)N[C@H](C(=O)N[C@@H](CC(N)=O)C(=O)N[C@H](C(=O)NCC(=O)N[C@@H](CO)C(=O)N[C@@H](CC(N)=O)C(=O)N[C@H](C(=O)N1CCC[C@H]1C(N)=O)[C@@H](C)O)C(C)C)[C@@H](C)O [Example 14] ({C20 diacid-γGlu-γGlu}-KCNTATCATQRLAEFLRHSSPNFGAIPSSTNVGSNTP-NH2; disulfide 2-7) |
